This passage reports inhibition, Activity and IC50 results from ChEMBL document CHEMBL4130544, “Bioactive Asarone-Derived Phenylpropanoids from the Rhizome of Acorus tatarinowii Schott” (J Nat Prod, 2017).

Calls of active or inactive are those of the source. The rule behind the calls is not given here.

Experiment [1] concerns the target T1, Alpha glucosidase (Homo sapiens, UniProt O43451+P10253+P14410+Q2M2H8). In words: Inhibition of alpha-glucosidase (unknown origin) at 400 uM using p-NPG as substrate pretreated for 10 mins followed by substrate addition measured after 5 mins. Format: protein assay.
Experiment [2] deals with Acetylcholinesterase (Homo sapiens) (UniProt P22303). In words: Inhibition of AChE (unknown origin) at 100 uM using acetylthiocholine iodide as substrate measured after 30 mins by Ellman's method. (In general: In Ellman's method for cholinesterases, released thiocholine reacts with DTNB.)
Experiment [3] is described as follows: Antioxidant activity assessed as DPPH radical scavenging activity at 100 uM incubated for 30 mins under dark condition. It is filed as functional.
Experiment [4] in a line: Antioxidant activity assessed as AAPH radical scavenging activity at 12.5 uM by ORAC-FL assay. It is filed as functional.
For experiment [5], the target named is T1, Alpha glucosidase. The experiment in a line: Inhibition of alpha-glucosidase (unknown origin) using p-NPG as substrate pretreated for 10 mins followed by substrate addition measured after 5 mins. Format: protein assay.

Acetylcholinesterase (Homo sapiens), sequence (P22303 whole entry): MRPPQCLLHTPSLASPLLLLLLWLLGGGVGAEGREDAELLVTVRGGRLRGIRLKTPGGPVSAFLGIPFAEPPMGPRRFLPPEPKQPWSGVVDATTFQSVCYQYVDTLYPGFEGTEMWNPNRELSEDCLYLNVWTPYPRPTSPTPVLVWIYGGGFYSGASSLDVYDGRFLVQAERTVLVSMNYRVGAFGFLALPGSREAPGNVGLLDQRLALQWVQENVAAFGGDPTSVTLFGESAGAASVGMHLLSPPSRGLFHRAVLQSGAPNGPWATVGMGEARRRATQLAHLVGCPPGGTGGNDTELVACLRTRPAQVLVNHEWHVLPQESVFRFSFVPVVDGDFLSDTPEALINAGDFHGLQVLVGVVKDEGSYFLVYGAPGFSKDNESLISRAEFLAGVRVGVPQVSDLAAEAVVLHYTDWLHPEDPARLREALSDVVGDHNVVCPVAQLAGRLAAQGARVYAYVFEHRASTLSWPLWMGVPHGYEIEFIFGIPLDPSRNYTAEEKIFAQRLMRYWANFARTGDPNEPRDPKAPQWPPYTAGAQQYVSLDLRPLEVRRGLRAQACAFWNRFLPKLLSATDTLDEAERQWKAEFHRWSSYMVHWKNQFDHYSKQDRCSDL

In the case of `CCO[C@H](c1cc(OC)c(OC)cc1OC)[C@@H](C)O`, the inhibition result in experiment [1] and in experiment [2] was “Active” throughout.
Regarding `COc1cc([C@H]2Oc3c(OC)cc(CCCO[C@@H]4O[C@H](CO)[C@@H](O)[C@H](O)[C@H]4O)cc3[C@@H]2CO)ccc1O`, the inhibition entry in experiment [1] and in experiment [2] was “Active” in each case. In experiment [3], the outcome was Active. In addition, the Activity in experiment [4] turned out to be 3.17 µMequiv/µM.
Consider `CCO[C@@H](c1cc(OC)c(OC)cc1OC)[C@H](C)O`, for which the inhibition entry in experiment [1] and in experiment [2] was “Active” throughout.
For the compound `COc1cc(OC)c([C@H](OC)[C@@H](C)O)cc1OC`, in experiment [1], the inhibition entry was “inactive”. Besides, the inhibition result in experiment [2] was “Active”.
The like results for `COc1cc(OC)c([C@H](OC)[C@H](C)O)cc1OC` were, in that order, “Active” and “Active”.
Regarding `CCO[C@H](c1cc(OC)c(OC)cc1OC)[C@H](C)O`, the inhibition entry in experiment [1] and in experiment [2] was “Active” throughout.
For `COc1cc(OC)c(C(C)=O)cc1OC`, the inhibition result in experiment [1] and in experiment [2] was “Active” each time.
As to `COc1cc(OC)c([C@@H](O)[C@@H](C)O)cc1OC` (relative stereo), the inhibition entry in experiment [1] and in experiment [2] was “Active” in each case.
For the compound `COc1ccc(CCCO)cc1OC`, the inhibition result in experiment [1] and in experiment [2] was “Active” in each case.
`COc1cc(OC)c([C@H](O)[C@@H](C)O)cc1OC` (relative stereo): the inhibition entry in experiment [1] and in experiment [2] was “Active” in each case.
For the compound `COc1cc(OC)c(C(O)C(C)=O)cc1OC` (stereo not drawn), the inhibition entry in experiment [1] and in experiment [2] was “Active” throughout.
Turning to `CCO[C@@H](c1cc(OC)c(OC)cc1OC)[C@@H](C)O`, the inhibition entry in experiment [1] and in experiment [2] was “Active” each time.
Take `O=C(O[C@@H]1Cc2c(O)cc(O)cc2O[C@@H]1c1cc(O)c(O)c(O)c1)c1cc(O)c(O)c(O)c1`: the Activity in experiment [4] came to 1.97 µMequiv/µM.
As for `COc1cc(OC)c([C@H](C)C(OC)OC)cc1OC`, the inhibition result in experiment [1] and in experiment [2] was “Active” each time.
On to `COc1cc(OC)c([C@@H](C)C(OC)OC)cc1OC`, for which the inhibition entry in experiment [1] and in experiment [2] was “Active” throughout.
Regarding `COc1cc([C@H]2OC[C@H]3[C@@H]2CO[C@@H]3c2ccc(O)c(OC)c2)ccc1O` (racemic), the inhibition entry in experiment [1] and in experiment [2] was “Active” each time. In addition, the result in experiment [3] and in experiment [4] was Active.
As to `COc1cc(OC)c([C@@H](OC)[C@H](C)O)cc1OC`, the inhibition entry in experiment [1] and in experiment [2] was “Active” each time. Besides, in experiment [5], the IC50 was found to be 80.6 µM.
Turning to `COc1cc(OC)c(OC)cc1C=O`, the inhibition result in experiment [1] and in experiment [2] was “Active” throughout.
In the case of `COc1cc([C@H]2Oc3c(OC)cc(CCCO)cc3[C@@H]2CO[C@@H]2O[C@H](CO)[C@@H](O)[C@H](O)[C@H]2O)ccc1O`, the inhibition result in experiment [1] and in experiment [2] was “Active” each time. Besides, the outcome in experiment [3] and in experiment [4] was Active.
On to `COc1cc(OC)c([C@@H](OC)[C@@H](C)O)cc1OC`, for which the inhibition result in experiment [1] and in experiment [2] was “Active” in each case.
Take `COc1cc(OC)c([C@@H]2[C@@H](C)[C@H](c3cc(OC)c(OC)cc3OC)O[C@@H]2C)cc1OC` (racemic): the inhibition entry in experiment [1] and in experiment [2] was “Active” throughout.

For orientation: IC50 means the point on the concentration scale where inhibition reaches its midpoint.
